Values joined by “and” are separate entries in the source; they are usually repeats but may differ in a detail not shown here. Equal entries are not always repeated. Some results are limits rather than exact numbers.

Experimental findings from PMC12431657, “Discovery and mechanistic insights of dibenzoylmethane as a broad spectrum inhibitor of coronavirus” (PLOS Pathogens, 2025) are described below.

Holding throughout (type): cell-based
Test [1] relates to SARS-CoV-2 variant Delta (B.1.617.2). The experiment in a line: microbe, parasite or virus in culture. Conditions: for EC50: Severe acute respiratory syndrome coronavirus 2, 24 h, read-out: EC50 B.1.617.2 (293T-AT).
The subject of test [2] is SARS-CoV-2 variant Omicron (BA.5). Description: microbe, parasite or virus in culture. Conditions: for EC50: Severe acute respiratory syndrome coronavirus 2, 24 h, read-out: EC50 BA.5 (293T-AT).
Test [3] has the same test system.

Turning to `C/C=C(/C)C(=O)OC(C)(C)[C@@H]1Cc2c(ccc3ccc(=O)oc23)O1` [Columbianadin, columbianadin], in test [1], the “B.1.617.2, HEK293T-AT: inhibition at the concentration (Fig2B)” value (shortened to “B.1.617.2, HEK293T-AT: inhibition”) is 99.1 and 99.3; the EC50 was under 80 nM. Besides, in test [2], the EC50 was under 80 nM.

For the compound `O=C(CC(=O)c1ccccc1)c1ccccc1` [DBM, dibenzoylmethane], in test [1], the EC50 amounted to 20800 nM. Further, in test [2], the “BA.5, HEK293T-AT: inhibition at the concentration (Fig2B)” value was determined as 97.4; the “inhibitory effect against SARS-CoV-2 BA.5 in HEK293T-AT cells” value is “demonstrated efficacy”; the EC50 stood at 6630 nM. The “inhibitory effect against SARS-CoV-2 BA.5 in Vero E6 cells” value in test [3] is on record as “but not in Vero E6 cells”.

As to `CCC(=O)O[C@H]1[C@H](O[C@@H]2[C@@H](C)[C@H](O[C@H]3C[C@@](C)(OC)[C@@H](O)[C@H](C)O3)[C@@H](C)C(=O)O[C@H](CC)[C@@](C)(O)[C@H](O)[C@@H](C)C(=O)[C@H](C)C[C@@]2(C)O)O[C@H](C)C[C@@H]1N(C)C` [Erythromycin estolate, erythromycin estolate, reference compound], in test [1], the “B.1.617.2, HEK293T-AT: inhibition” value was 98.9 and 99.6 and 99.2; the 50% effective concentration (EC50) is under 80 nM. In test [2], the EC50 was under 80 nM.

In the case of `CC1=C[C@]23C(=O)[C@@H](C=C(COC(=O)c4ccccc4)[C@@H](O)[C@]2(O)[C@H]1OC(=O)c1ccccc1)[C@H]1[C@@H](C[C@H]3C)C1(C)C` [Ingenol 3,20-dibenzoate, ingenol 3,20-dibenzoate], in test [1], the “B.1.617.2, HEK293T-AT: inhibition” value stood at 81.2 and the EC50 is under 80 nM. In test [2], the EC50 was under 80 nM.

Turning to `Cc1c([C@H](C)[C@@H]2NC[C@@H](C)C[C@H]2O)ccc2c1C[C@H]1[C@H]2CC=C2C[C@@H](O)CC[C@@]21C` [Veratramine, veratramine], in test [1], the “B.1.617.2, HEK293T-AT: inhibition” value is 99.1 and 99.7 and 99.9; the EC50 was under 80 nM. Moreover, in test [2], the “BA.5, HEK293T-AT: inhibition at the concentration (Fig2B)” value is 81.3 and the EC50 was under 80 nM.
